Row | SMILES | melting point
1 | Cc1nc(NC(=O)Nc2ccccc2)n(C)c(=O)c1CCN1CCC(Cc2nc3ccccc3n2Cc2ccc(F)cc2)CC1 | 157 °C
2 | CN(C)C(=O)Cc1cccc(C(=O)c2ccccc2)c1N | 123 to 124 °C
3 | COc1ccccc1CSc1nc2cnccc2[nH]1 | 193 to 195 °C
4 | CC(Oc1ccc(-c2ccc(C#N)c(C#N)c2)cc1)C(O)CCc1cccnc1 (configuration not stated) | 136 to 137 °C
5 | CN1CCN(c2ccc(Nc3nc(N)c(C(=O)c4c(Cl)cc(Br)c(N)c4Cl)s3)cc2)CC1 | 180 to 182 °C
6 | O=C1Nc2cc(F)ccc2C1c1ncnc2nn(C3CCCC3)cc12 (configuration not stated) | 258 to 263 °C
7 | COc1ccc(-c2nc(Sc3ccc(Cl)cc3)n(C3CCCCO3)c2-c2ccc(OC)cc2)cc1 (configuration not stated) | 202 to 204 °C
8 | Cn1ccnc1-c1ccccc1Nc1nc(Nc2ccc3c(c2)C(C)(C)CCC(=O)N3)ncc1Cl | 227 °C
9 | Cc1ccccc1C=Cc1ccccc1 | 92 to 93 °C
10 | CC(C)C1=NCCSC1=NO | 167 to 169 °C
11 | O=C(OC(c1ccccc1)c1ccccc1)C1=C(Sc2ccccc2)CC2CC(=O)C12 (configuration not stated) | 148 to 150 °C
12 | COC(=O)c1ccc(S(C)(=O)=O)c(C(=O)NN)c1Cl | 85 to 95 °C
13 | Cc1c(C2CCCCC2)nn(C)c1C1CCCCC1 | 120 to 122 °C
14 | COC(=O)N(Cc1ccccc1)[C@H]1CC[C@H](c2ccc(O)cc2)CC1 | 61 to 66 °C
15 | OC(COc1ccccc1-c1nc2ccccc2s1)CN1CCN(C(c2ccccc2)c2ccccc2)CC1 (configuration not stated) | 152 to 155 °C
16 | COc1ccc(C[C@@H](NC(=O)OCc2ccccc2)[C@H](O)C(=O)O)cc1 | 160 to 162 °C
17 | O=c1ccsc2c3ccccc3n(-c3ccccc3[N+](=O)[O-])c12 | 207 to 208 °C
18 | CCOc1c(CCl)c(CCl)c(OCC)c2ccccc12 | 110 °C
19 | O=C(Cc1cnoc1-c1ccccc1)Nc1nc(-c2ccc(Cl)cc2)cs1 | 210 to 211 °C
20 | O=C(c1nccs1)c1cnn2c(-c3cccc(NC(=O)C4CC4)c3)ccnc12 | 226 to 229 °C
21 | Clc1ccc2ccc(COc3cccc(CN4CCc5cccc(CCc6nnn[nH]6)c54)c3)nc2c1 | 137 to 140 °C
22 | N=C(N)c1ccc(N2CCN(c3ccc(SCC(=O)O)cc3)C2=O)cc1 | > 275 °C
23 | COC(=O)CNc1cc(O)c(C(C)=O)c(OC)c1 | 114 to 115 °C
24 | CCc1cc(N)c(C(=O)OC)c(CC)n1 | 75 °C
25 | CC(C)C(=O)Nc1cc(C(C)(C)C)on1 | 123 to 124 °C
26 | CC1OC(Cc2cccc3c2C(=O)c2ccccc2C3=O)CC(N)C1O (configuration not stated) | > 280 °C

Row | SMILES | melting point
27 | Cc1[nH]c(-c2cccc(C(F)(F)F)c2)nc1C=O | 180 °C
28 | CC(C)c1nccn1N=Cc1ccccc1 | 65 to 66 °C
29 | N#CC(CC(=O)c1ccc(C(F)(F)F)cc1)C1CC1 (configuration not stated) | 91 to 93 °C
30 | COc1ccc2c(c1)c(CC(=O)O)c(C)n2C(=O)c1ccccc1 | 158 to 160 °C
31 | CCCSc1ncc(C(=O)N[C@H](C(=O)O)[C@@H](C)CC)n1Cc1ccccc1Cl | 156 to 158 °C
32 | O=C(c1cc2ccccc2cn1)N(O)CCc1ccccc1 | 90 to 95 °C
33 | O=c1nc(-c2cccc(CN3CCC(Cc4ccccc4)CC3)n2)sc2ccccc12 | 151 to 153 °C
34 | Cc1nn(-c2ccc(C(F)(F)F)cn2)cc1CO | 157 to 158 °C
35 | COC(=O)c1c(C)n(-c2ccccc2)c(C)c(C(=O)OC)c1=O | 215 °C
36 | Cc1cc(C)c2c(c1C)O[C@@H](C)[C@H]2c1ccc(C(C)C)cc1 (relative stereo) | 79 to 80 °C
37 | Nc1cccc(C(=O)N2CC3CC(CN(Cc4ccccc4)C3)C2)c1 | 178 °C
38 | N#Cc1cc(/C=C/C(c2cc(Cl)c(Cl)c(Cl)c2)C(F)(F)F)ccc1-n1cnc(N(C(=O)C2CC2)C(=O)C2CC2)n1 (configuration not stated) | 104 to 107 °C
39 | N#Cc1c(OCCN2CCOCC2)cccc1Oc1ccc(-c2cn(C3CCOCC3)c3ncnc(N)c23)cc1 | 110 °C
40 | CCCc1nc(C(=O)CC)c(C)[nH]1 | 63 to 67 °C
41 | CCCC1(C)C(=O)N(CCl)S(=O)(=O)N1C (configuration not stated) | 99 to 100 °C
42 | COc1cc2c(cc1C(F)(F)F)N(C(=O)Nc1cccc(S(=O)(=O)Nc3cccnc3)c1)CC2 | > 215 °C
43 | CC1(C)OC(=O)C(Oc2ccc(Cl)c(Cl)c2)=C1c1ccc(S(C)(=O)=O)cc1 | 144 to 145 °C
44 | CCOC(=O)c1cnc([N+](=O)[O-])n1C | 65 to 66 °C
45 | Nc1ccc2ccc(Cl)cc2n1 | 175 °C
46 | Cc1ccc(S(=O)(=O)Nc2ccc(C#N)cc2Cl)cc1 | 186 to 187 °C
47 | O=C(NCCCCCCCNC(=O)c1ccc(Oc2ccccc2)cc1)c1ccc(Oc2ccccc2)cc1 | 164 to 165 °C
48 | C=C(C)C(=O)OCCOc1ccc(/C=C/C(=O)OC)cc1 | 81 to 82 °C
49 | CN(C=O)c1ccccc1C(=O)COC(=O)c1ccccc1 | 100 to 102 °C
50 | NCc1cc2c(N)nccc2o1 | 142 to 144 °C
51 | Cn1c(CC(=O)O)ccc1C(=O)c1ccccc1 | 144 to 145 °C
52 | COc1cc2c(cc1O)CCN(Cc1ccccc1OC)C2 | 128 to 129 °C

Row | SMILES | melting point
53 | Oc1ccc(N=C2SCCS2)cc1 | 204 to 208 °C
54 | CC(C)(C)c1ccc(CCC(CC2CCCCC2)OC(=O)Oc2ccc(C(=O)O)cc2)cc1NC(=O)CC1c2ccccc2Oc2ccccc21 (configuration not stated) | 139 to 141 °C
55 | C(=C1CN2CCC1CC2)c1ccc(-c2ccccc2)cc1 | 107 °C
56 | Cc1ccc(N2N=C3c4ccncc4CCC3CC2=O)cc1 (configuration not stated) | 152 to 153 °C
57 | CCCCCCCCCCCCCCCCCCN(C(=O)OC(C)(C)C)c1ccc(CCC(=O)O)cc1 | 46 to 48 °C
58 | CN1CCC(OC2c3ccccc3CCn3cc(-c4ccc(Br)cc4)nc32)CC1 (configuration not stated) | 142 °C
59 | CN(C)Nc1cc(Cl)c(Cl)cc1[N+](=O)[O-] | 138 to 143 °C
60 | O=C(O)CCC(NC(=O)c1ccccc1)C(=O)NC(c1ccccc1)c1ccccc1 (configuration not stated) | 128 °C
61 | Cc1c(NC(=O)c2ccc(-c3ccc(Cl)s3)cc2F)ccc2cc(CN3CCCC3)cnc12 | 160 to 162 °C
62 | CCOC(=O)c1ccc(NC(=O)CCc2ccc3ccccc3c2)cc1 | 119 to 121 °C
63 | Cc1cc2ncccn2n1 | 54 to 57 °C
64 | CN(c1ccc(Cl)cc1[N+](=O)[O-])S(=O)(=O)C=Cc1ccccc1 | 162 to 164 °C
65 | CC(C)(C)OC(=O)/C=C/c1ccc(C(=C2CCCCCCC2)c2ccc(O)cc2)cc1 | 171 to 172 °C
66 | CCOc1cc(OCC)c2c(C)c(CCO)c(=O)oc2c1 | 117 to 119 °C
67 | ClCOc1ccc(Cl)cc1Br | 56 to 57.5 °C
68 | COc1ccc(CN2C(=O)C(C)(c3ccccc3Cl)c3cc(OC)ccc32)c(OC)c1 (configuration not stated) | 133 °C
69 | Cc1oc(-c2ccccc2)nc1COc1ccc(COc2ccc(O)cc2CC(=O)O)cc1 | 194 to 195 °C
70 | O=C1Cc2c([nH]c3ccc([N+](=O)[O-])cc23)-c2cc(Br)ccc2N1 | > 330 °C
71 | COc1ccccc1CNC(=O)c1c(-c2ccc(C)cc2)c2cccnc2c(=O)n1CCCCO | 205 to 206 °C
72 | CSc1ccc(C(=O)Nc2ccccc2)cc1N | 143 to 145 °C
73 | CC1(C)C(=O)C(C(=O)c2ccc(Cl)cc2[N+](=O)[O-])C(=O)C(C)(C)C1=O | 76 to 82 °C
74 | COc1cc(OC)nc(Sc2c(NS(=O)(=O)CC#N)nc(C)n2C)n1 | 223 to 225 °C
75 | CCCCOc1ccc2nc(C(=O)NCC(=O)O)c(O)cc2c1 | 180 to 182 °C
76 | Cc1ccc(NC(=O)C2C(=O)N(C)c3ccccc3S2(=O)=O)cc1 (configuration not stated) | 218 to 220 °C
77 | COc1ccc2[nH]c(S(=O)Cc3cc(N4CCCCC4)ncn3)nc2c1 (configuration not stated) | 98 to 101 °C
78 | CC1=C(c2ccncc2)SC(O)C(=O)N1 (configuration not stated) | 214 °C

Row | SMILES | melting point
79 | N[C@@H](Cc1c[nH]cn1)C(=O)N(N)C(=O)C(CC(=O)N1CCOCC1)Cc1cccc2ccccc12 (some centres not stated) | 115 to 119 °C
80 | C[C@@H]1S[C@@H](C(=O)Nc2ccc(CN3CCSC3)cc2)Cc2cc3c(cc2C1=O)OCO3 | 179 to 181 °C
81 | CSc1cc(C)nc(SC)c1NC(=O)CCCSc1nc2ccccc2s1 | 131 to 133 °C
82 | Cc1nc(NC(=O)CC2CC2)sc1C(=O)NCc1ccccc1 | 136 to 139 °C
83 | Cc1cc(=O)n2cccc(OCc3ccccc3Br)c2n1 | 144 to 146 °C
84 | CCOC(=O)C(C#N)Cc1cc(OC)c(OC)cc1C (configuration not stated) | 39 to 40 °C
85 | NC(=O)c1cc(Cl)c(NC(=O)CCl)c(Cl)c1 | 260 °C
86 | CN(C)C1(c2cccc(F)c2)CCC2(OCCc3c2[nH]c2ccccc32)C(CNC(=O)C=Cc2cccc(-c3ccccc3)c2)C1 (configuration not stated) | 134 to 140 °C
87 | O=C(O)Cc1ccc(Cn2cc(C(=O)C(=O)NC3=CC(=O)OC3)c3ccccc32)cc1 | > 270 °C
88 | CCN(c1ccc(C(=O)O)cc1)c1cc2c3c(c1)CCCC3CCC2 | 284 to 285 °C
89 | CCn1nc(-c2c(-c3ccccc3)nn3ccc(OC)cc23)ccc1=O | 148 to 149 °C
90 | CCc1cccc2c(-c3nc(OC)cc(OC)n3)c(C)[nH]c12 | 90.3 to 94.8 °C
91 | Cc1c(OCCCO)ccnc1CO | 65 to 70 °C
92 | Cc1nnc2ccc(-c3cccc(NC(=O)C(C)(C)C)c3)nn12 | 256 to 258 °C
93 | CNC(=O)CCn1cnc2c(N)nc3ccccc3c21 | > 260 °C
94 | CNc1c(C/C=C(\C)CCC(=O)O)c(OC)c(C)c2c1C(=O)OC2 | 121 to 124 °C
95 | C=CC[C@@H]1C(=O)OC[C@@H]1O[Si](C)(C)C(C)(C)C | 48 °C
96 | CC(C)c1ccc(C(=O)NC(C)c2ccc(Br)s2)cc1 (configuration not stated) | 108 °C
97 | Cc1cc(OCCc2nc(-c3ccccc3)oc2C)ccc1OCC(=O)O | 133 °C
98 | CN(C)c1nc(Br)cnc1N | 145 °C
99 | COC(=O)c1ccc2c(c1)CN(S(=O)(=O)c1ccc(C)cc1)C2 | 164 to 166 °C
100 | CCCC(=O)c1cnc2c(OCCCN(C)C)cccc2c1Nc1ccc(F)cc1C | 99 to 100 °C
101 | Cn1c(=O)c2c(ncn2Cc2noc(O)n2)n(C)c1=O | 206 to 207 °C
102 | O=C(O)C1=Cc2cc(-c3ccc(OC(F)(F)F)cc3)ccc2S(=O)(=O)CC1 | 284 to 285 °C
